Source: patent US4766151A, “Ethers and oxime ethers of alkylamino alcohols as medicaments and novel products, and processes for their preparation” (Laboratoires, P.O.S., priority 1982, dated 1988)
Where a name gives a salt, the structure may show the parent alone.

Legend:
[1] = target: T1, isolated trachea of a guinea pig (Cavia porcellus, UniProt Q8K4Z4); experiment: pA2 measurement of beta-blocking activity on the isolated trachea of a guinea pig; format: cell-based
T1 construct: isolated trachea of a guinea pig; from tissue; host or cells: guinea pig isolated trachea
T1 sequence (Q8K4Z4 whole entry): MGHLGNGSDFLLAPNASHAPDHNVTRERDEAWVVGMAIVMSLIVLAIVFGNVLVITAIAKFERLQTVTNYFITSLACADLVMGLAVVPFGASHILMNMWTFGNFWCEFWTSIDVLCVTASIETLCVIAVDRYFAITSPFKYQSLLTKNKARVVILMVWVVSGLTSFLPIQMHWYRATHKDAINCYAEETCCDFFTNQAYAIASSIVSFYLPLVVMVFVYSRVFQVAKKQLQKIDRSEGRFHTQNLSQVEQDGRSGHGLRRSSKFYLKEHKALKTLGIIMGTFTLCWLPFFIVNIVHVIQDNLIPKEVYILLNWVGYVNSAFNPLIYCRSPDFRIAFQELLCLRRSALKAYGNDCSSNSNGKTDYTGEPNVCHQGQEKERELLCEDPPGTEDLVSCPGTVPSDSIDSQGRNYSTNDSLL
Method: (§1) The PA2 is the co-logarithm of the concentration of antagonist in the presence of which it requires twice as much agonist as in its absence in order to achieve the same effect; see, on this subject: Calculation of the PAx, Technical Leaflet No. 16, J. Pharmacol. Paris 1971, 2, 3, 373-380. The PA2 was measured on the isolated auricle of a guinea pig and on the isolated trachea of a guinea pig. The product used by way of comparison is the following compound: [drawing 23]

[2] = target: T2, isolated auricle of a guinea pig (Cavia porcellus, UniProt H0W3H1); experiment: pA2 measurement of beta-blocking activity on the isolated auricle of a guinea pig; format: cell-based; settings: inotropic
T2 construct: isolated auricle of a guinea pig; from tissue; host or cells: guinea pig isolated auricle (atrium)
T2 sequence (H0W3H1 1-470): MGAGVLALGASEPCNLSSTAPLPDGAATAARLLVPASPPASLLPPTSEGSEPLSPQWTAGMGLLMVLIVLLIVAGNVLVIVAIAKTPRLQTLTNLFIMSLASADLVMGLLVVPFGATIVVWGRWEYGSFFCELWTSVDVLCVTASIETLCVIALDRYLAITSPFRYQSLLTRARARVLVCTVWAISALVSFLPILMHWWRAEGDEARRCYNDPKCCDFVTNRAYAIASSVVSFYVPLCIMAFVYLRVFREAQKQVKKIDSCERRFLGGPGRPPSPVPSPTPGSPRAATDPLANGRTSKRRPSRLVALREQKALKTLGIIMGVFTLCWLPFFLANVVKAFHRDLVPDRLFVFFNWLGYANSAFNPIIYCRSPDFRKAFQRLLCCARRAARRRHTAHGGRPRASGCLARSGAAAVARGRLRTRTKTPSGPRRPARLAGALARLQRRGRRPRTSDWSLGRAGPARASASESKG
Method: as §1

[3] = target: T3, isolated auricle of a guinea pig (Cavia porcellus); experiment: as above; format: cell-based; settings: chronotropic
T3 construct: isolated auricle of a guinea pig; from tissue; host or cells: guinea pig isolated auricle (atrium)
T3 sequence (H0W3H1 1-470): as above
Method: as §1

[4] = target: T4, isolated trachea of a guinea pig (Cavia porcellus); experiment: pA2 measurement of beta-blocking activity on the isolated trachea of a guinea pig; format: cell-based
T4 construct: isolated trachea of a guinea pig; from tissue; host or cells: guinea pig isolated trachea
T4 sequence (Q8K4Z4 whole entry): as the sequence (Q8K4Z4 whole entry) above
Method: as §1

[5] = prior art; cited from earlier work

| Structure (SMILES) | Trachea pA2 [1] | Kb [2] [nM] | Kb [3] [nM] | Kb [4] [nM] | undesirable secondary effects in treatment of glaucomas [5] |
| --- | --- | --- | --- | --- | --- |
| C=CC(C)(C)OCC(O)CNC(C)(C)C (stereo not drawn) [Comparison, reference compound] | 4.96 |  |  |  |  |
| CC(=NOCC(O)CNC(C)(C)C)C1CC1 (stereo not drawn) [Compound No. 1, 1-N-tert.-Butylamino-3-(cyclopropyl-methylketoneoximino)-propan-2-ol] |  | 1 | 2 | 0.912 |  |
| CC(C)(C)NCC(O)CON=C(C1CC1)C1CC1 (stereo not drawn) [Compound No. 2, 1-N-tert.-Butylamino-3-(dicyclopropyl-ketoneoximino)-propan-2-ol] |  | 7.24 | 5.01 |  |  |
| CC(C)(C)NCC(O)COCC1CC1 (stereo not drawn) [compound 3, 1-N-tert.-Butylamino-3-cyclopropylmethoxy-propan-2-ol] | 6.23 |  | 79.4 |  |  |
| CC(C)(C)NC[C@H](O)COc1nsnc1N1CCOCC1 [timolol maleate] |  |  |  |  | bronchial disorders (asthma) or cardiovascular disorders (orthostatic hypotension and slowing down of the pulse rate) |
